Results: patent US9586962B2, “Disubstituted octahydropyrrolo [3,4-C] pyrroles as orexin receptor modulators” (Janssen Pharmaceutica NV, priority 2011, dated 2017)

target: T1, human orexin 2 receptor (Homo sapiens (Human), UniProt O43614); test: Human orexin 2 receptor radioligand binding ([3H]EMPA competition, HEK293 cells); conditions: HEK293 cells expressing human orexin-2 receptor, read-out: OR 2 Ki
T1 sequence (O43614 whole entry): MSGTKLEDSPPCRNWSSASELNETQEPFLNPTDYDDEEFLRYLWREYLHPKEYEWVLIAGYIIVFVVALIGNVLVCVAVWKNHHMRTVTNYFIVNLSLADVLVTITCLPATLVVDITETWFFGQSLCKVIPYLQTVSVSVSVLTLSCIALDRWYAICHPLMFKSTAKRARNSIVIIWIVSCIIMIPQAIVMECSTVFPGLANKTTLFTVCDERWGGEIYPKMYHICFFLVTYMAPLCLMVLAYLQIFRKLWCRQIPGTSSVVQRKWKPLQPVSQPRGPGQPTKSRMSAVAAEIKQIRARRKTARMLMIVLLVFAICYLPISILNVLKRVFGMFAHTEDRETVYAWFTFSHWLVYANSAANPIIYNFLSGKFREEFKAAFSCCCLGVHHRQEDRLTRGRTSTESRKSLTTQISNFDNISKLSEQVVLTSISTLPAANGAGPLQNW

| Ki [µM] | Structure (SMILES) |
| --- | --- |
| 0.015 | Cc1cc(C)nc(N2CC3CN(C(=O)c4c(F)cccc4-c4nccs4)CC3C2)n1 (centres unmarked) [Example 476, 2-(4,6-Dimethylpyrimidin-2-yl)-5-{[2-fluoro-6-(1,3-thiazol-2-yl)phenyl]carbonyl}octahydropyrrolo[3,4-c]pyrrole] |
| 0.024 | Cc1cc(C)nc(N2CC3CN(C(=O)c4c(F)cccc4-c4ncccc4F)CC3C2)n1 (centres unmarked) [Example 481, 2-(4,6-Dimethylpyrimidin-2-yl)-5-{[2-fluoro-6-(3-fluoropyridin-2-yl)phenyl]carbonyl}octahydropyrrolo[3,4-c]pyrrole] |
| 0.03 | Cc1cc(C)nc(N2CC3CN(C(=O)c4c(F)cccc4-c4cn(C)cn4)CC3C2)n1 (centres unmarked) [Example 482, 2-(4,6-Dimethylpyrimidin-2-yl)-5-{[2-fluoro-6-(1-methyl-1H-imidazol-4-yl)phenyl]carbonyl}octahydropyrrolo[3,4-c]pyrrole] |
| 0.011 | COc1ccnc(-c2cccc(F)c2C(=O)N2CC3CN(c4nc(C)cc(C)n4)CC3C2)n1 (centres unmarked) [Example 483, 2-(4,6-Dimethylpyrimidin-2-yl)-5-{[2-fluoro-6-(4-methoxypyrimidin-2-yl)phenyl]carbonyl}octahydropyrrolo[3,4-c]pyrrole] |
| 0.23 | Cc1cc(C)nc(N2CC3CN(C(=O)c4c(F)cccc4-c4ccc(Cl)cn4)CC3C2)n1 (centres unmarked) [Example 484, 2-{[2-(5-Chloropyridin-2-yl)-6-fluorophenyl]carbonyl}-5-(4,6-dimethylpyrimidin-2-yl)octahydropyrrolo[3,4-c]pyrrole] |
| 0.084 | CSc1nccc(-c2cccc(F)c2C(=O)N2CC3CN(c4nc(C)cc(C)n4)CC3C2)n1 (centres unmarked) [Example 485, 2-(4,6-Dimethylpyrimidin-2-yl)-5-({2-fluoro-6-[2-(methylsulfanyl)pyrimidin-4-yl]phenyl}carbonyl)octahydropyrrolo[3,4-c]pyrrole] |
| 0.015 | Cc1cc(C)nc(N2CC3CN(C(=O)c4c(F)cccc4-c4cscn4)CC3C2)n1 (centres unmarked) [Example 486, 2-(4,6-Dimethylpyrimidin-2-yl)-5-{[2-fluoro-6-(1,3-thiazol-4-yl)phenyl]carbonyl}octahydropyrrolo[3,4-c]pyrrole] |
| 0.045 | Cc1ccnc(-c2cccc(F)c2C(=O)N2CC3CN(c4nc(C)cc(C)n4)CC3C2)c1 (centres unmarked) [Example 489, 2-(4,6-Dimethylpyrimidin-2-yl)-5-{[2-fluoro-6-(4-methylpyridin-2-yl)phenyl]carbonyl}octahydropyrrolo[3,4-c]pyrrole] |
| 0.016 | Cc1cc(C)nc(N2CC3CN(C(=O)c4c(F)cccc4-c4ncco4)CC3C2)n1 (centres unmarked) [Example 491, 2-(4,6-Dimethylpyrimidin-2-yl)-5-{[2-fluoro-6-(1,3-oxazol-2-yl)phenyl]carbonyl}octahydropyrrolo[3,4-c]pyrrole] |

Second part, the molecule before the results:

| Structure (SMILES) | Ki [µM] |
| --- | --- |
| Cc1noc(-c2c(F)cccc2C(=O)N2CC3CN(c4ncc(F)c(C)n4)CC3C2)n1 (centres unmarked) [Example 440, 2-{[3-Fluoro-2-(3-methyl-1,2,4-oxadiazol-5-yl)phenyl]carbonyl}-5-(5-fluoro-4-methylpyrimidin-2-yl)octahydropyrrolo[3,4-c]pyrrole] | 0.064 |
| COc1cccnc1-c1c(F)cccc1C(=O)N1CC2CN(c3cnc4cc(F)c(F)cc4n3)CC2C1 (centres unmarked) [Example 453, 6,7-Difluoro-2-[5-{[3-fluoro-2-(3-methoxypyridin-2-yl)phenyl]carbonyl}hexahydropyrrolo[3,4-c]pyrrol-2(1H)-yl]quinoxaline] | 0.047 |
| O=C(c1cccc(F)c1-c1cncs1)N1CC2CN(c3cnc4cc(F)c(F)cc4n3)CC2C1 (centres unmarked) [Example 454, 6,7-Difluoro-2-[5-{[3-fluoro-2-(1,3-thiazol-5-yl)phenyl]carbonyl}hexahydropyrrolo[3,4-c]pyrrol-2(1H)-yl]quinoxaline] | 0.072 |
| O=C(c1cccc(F)c1-c1cscn1)N1CC2CN(c3cnc4cc(F)c(F)cc4n3)CC2C1 (centres unmarked) [Example 455, 6,7-Difluoro-2-[5-{[3-fluoro-2-(1,3-thiazol-4-yl)phenyl]carbonyl}hexahydropyrrolo[3,4-c]pyrrol-2(1H)-yl]quinoxaline] | 0.032 |
| O=C(c1cccc(F)c1-c1[nH]ncc1F)N1CC2CN(c3cnc4cc(F)c(F)cc4n3)CC2C1 (centres unmarked) [Example 456, 6,7-Difluoro-2-[5-{[3-fluoro-2-(4-fluoro-1H-pyrazol-5-yl)phenyl]carbonyl}hexahydropyrrolo[3,4-c]pyrrol-2(1H)-yl]quinoxaline] | 0.031 |
| COc1ccc(C(=O)N2CC3CN(c4cnc5cc(F)c(F)cc5n4)CC3C2)c(-c2ncccn2)c1 (centres unmarked) [Example 459, 6,7-Difluoro-2-{5-[(4-methoxy-2-pyrimidin-2-ylphenyl)carbonyl]hexahydropyrrolo[3,4-c]pyrrol-2(1H)-yl}quinoxaline] | 0.038 |
| Cc1cccc(C(=O)N2CC3CN(c4cnc5cc(F)c(F)cc5n4)CC3C2)c1-n1nccn1 (centres unmarked) [Example 460, 6,7-Difluoro-2-[5-{[3-methyl-2-(2H-1,2,3-triazol-2-yl)phenyl]carbonyl}hexahydropyrrolo[3,4-c]pyrrol-2(1H)-yl]quinoxaline] | 0.109 |
| Cc1cc(C)nc(N2CC3CN(C(=O)c4cccc5c4OCC5)CC3C2)n1 (centres unmarked) [Example 463, 2-(2,3-Dihydro-1-benzofuran-7-ylcarbonyl)-5-(4,6-dimethylpyrimidin-2-yl)octahydropyrrolo[3,4-c]pyrrole] | 4 |
| Cc1cc(C)nc(N2CC3CN(C(=O)c4c(C)nc5sccn45)CC3C2)n1 (centres unmarked) [Example 464, 5-{[5-(4,6-Dimethylpyrimidin-2-yl)hexahydropyrrolo[3,4-c]pyrrol-2(1H)-yl]carbonyl}-6-methylimidazo[2,1-b][1,3]thiazole] | 3.9 |
| COc1cccc(-n2nccn2)c1C(=O)N1CC2CN(c3nc(C)cc(C)n3)CC2C1 (centres unmarked) [Example 465, 2-(4,6-Dimethylpyrimidin-2-yl)-5-{[2-methoxy-6-(2H-1,2,3-triazol-2-yl)phenyl]carbonyl}octahydropyrrolo[3,4-c]pyrrole] | 0.033 |
| Cc1cc(C)nc(N2CC3CN(C(=O)c4c(F)cccc4-c4ncc(C)s4)CC3C2)n1 (centres unmarked) [Example 477, 2-(4,6-Dimethylpyrimidin-2-yl)-5-{[2-fluoro-6-(5-methyl-1,3-thiazol-2-yl)phenyl]carbonyl}octahydropyrrolo[3,4-c]pyrrole] | 0.019 |
| Cc1cc(C)nc(N2CC3CN(C(=O)c4c(F)cccc4-c4[nH]ncc4C(F)(F)F)CC3C2)n1 (centres unmarked) [Example 478, 2-(4,6-Dimethylpyrimidin-2-yl)-5-({2-fluoro-6-[4-(trifluoromethyl)-1H-pyrazol-5-yl]phenyl}carbonyl)octahydropyrrolo[3,4-c]pyrrole] | 0.049 |
| COc1ncc(-c2cccc(F)c2C(=O)N2CC3CN(c4nc(C)cc(C)n4)CC3C2)s1 (centres unmarked) [Example 479, 2-(4,6-Dimethylpyrimidin-2-yl)-5-{[2-fluoro-6-(2-methoxy-1,3-thiazol-5-yl)phenyl]carbonyl}octahydropyrrolo[3,4-c]pyrrole] | 0.524 |
| Cc1cc(C)nc(N2CC3CN(C(=O)c4c(F)cccc4C4=CC(=O)OC4)CC3C2)n1 (centres unmarked) [Example 480, 4-(2-{[5-(4,6-Dimethylpyrimidin-2-yl)hexahydropyrrolo[3,4-c]pyrrol-2(1H)-yl]carbonyl}-3-fluorophenyl)furan-2(5H)-one] | 3.81 |
| Cc1cc(C)nc(N2CC3CN(C(=O)c4c(F)cccc4-c4cncs4)CC3C2)n1 (centres unmarked) [Example 487, 2-(4,6-Dimethylpyrimidin-2-yl)-5-{[2-fluoro-6-(1,3-thiazol-5-yl)phenyl]carbonyl}octahydropyrrolo[3,4-c]pyrrole] | 0.054 |
| Cc1cc(C)nc(N2CC3CN(C(=O)c4c(F)cccc4-c4ccnnc4)CC3C2)n1 (centres unmarked) [Example 488, 2-(4,6-Dimethylpyrimidin-2-yl)-5-[(2-fluoro-6-pyridazin-4-ylphenyl)carbonyl]octahydropyrrolo[3,4-c]pyrrole] | 10 |
| Cc1cc(C)nc(N2CC3CN(C(=O)c4cc(F)ccc4-c4cccn4C)CC3C2)n1 (centres unmarked) [Example 493, 2-(4,6-Dimethylpyrimidin-2-yl)-5-{[5-fluoro-2-(1-methyl-1H-pyrrol-2-yl)phenyl]carbonyl}octahydropyrrolo[3,4-c]pyrrole] | 10 |
| Cc1cc(C)nc(N2CC3CN(C(=O)c4cc(F)ccc4-c4cscn4)CC3C2)n1 (centres unmarked) [Example 494, 2-(4,6-Dimethylpyrimidin-2-yl)-5-{[5-fluoro-2-(1,3-thiazol-4-yl)phenyl]carbonyl}octahydropyrrolo[3,4-c]pyrrole] | 0.18 |
| Cc1nc(N2CC3CN(C(=O)c4cccc(F)c4-c4ncco4)CC3C2)ncc1F (centres unmarked) [Example 496, 2-(5-Fluoro-4-methylpyrimidin-2-yl)-5-{[3-fluoro-2-(1,3-oxazol-2-yl)phenyl]carbonyl}octahydropyrrolo[3,4-c]pyrrole] | 0.026 |

target: T1, human orexin 2 receptor; test: Human orexin 2 receptor Ca2+ mobilization assay (FLIPR, PFSK cells, orexin B 100 nM); assay type: cell-based; conditions: modified Cheng-Prusoff correction, read-out: OR 2 Kb

| Structure (SMILES) | Kb [µM] |
| --- | --- |
| Cc1noc(-c2c(F)cccc2C(=O)N2CC3CN(c4ncc(F)c(C)n4)CC3C2)n1 (centres unmarked) [Example 440, 2-{[3-Fluoro-2-(3-methyl-1,2,4-oxadiazol-5-yl)phenyl]carbonyl}-5-(5-fluoro-4-methylpyrimidin-2-yl)octahydropyrrolo[3,4-c]pyrrole] | 0.015 |
